Source: patent publication US10106556B2, “Heterocyclic compound” (TAKEDA PHARMACEUTICAL COMPANY LIMITED, priority 2015, dated 2018)

Target: T1, His-hMAGL (recombinant polyhistidine tagged human MAGL protein) (Homo sapiens, UniProt Q99685)
T1 construct: made in house; host or cells: E. coli BL21(DE3)
T1 sequence (Q99685 1-303): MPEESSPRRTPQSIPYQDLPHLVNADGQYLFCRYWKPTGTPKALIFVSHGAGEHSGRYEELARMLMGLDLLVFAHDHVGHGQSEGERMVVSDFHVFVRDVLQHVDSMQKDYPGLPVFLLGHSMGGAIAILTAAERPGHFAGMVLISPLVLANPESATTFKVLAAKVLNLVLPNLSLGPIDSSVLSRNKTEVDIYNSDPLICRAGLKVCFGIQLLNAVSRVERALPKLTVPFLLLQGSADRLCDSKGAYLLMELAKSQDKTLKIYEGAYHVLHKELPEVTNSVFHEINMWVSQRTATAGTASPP
Assay: Measurement of MAGL inhibitory activity (arachidonic acid production from 2-arachidonylglycerol, RapidFire-mass spectrometry)
Format: biochemical
Conditions: MAGL inhibitory rate at 10 μM test compound, 60 min preincubation with His-hMAGL, 2-arachidonylglycerol substrate, 10 min reaction at room temperature
Protocol: Furthermore, acetonitrile (50 μL) containing 3 μM arachidonic acid-d8 (Cayman Chemical Company) was added and the mixture was stirred.
The amount of arachidonic acid in the obtained enzyme reaction mixture was calculated by measuring by RapidFire-mass spectrometry and correcting by the amount of arachidonic acid-d8. High Throughput online solid phase extraction was performed using RapidFire 300™ system (Agilent Technologies, Inc.). Samples were loaded on SPE C4 cartridge (Agilent Technologies, Inc.) and desalted with 0.2 (v/v) % acetic acid (Wako Pure Chemical Industries, Ltd.) in ultrapure water/acetonitrile (70/30, v/v) at a flow rate of 1.5 mL/min, eluted at a flow rate of 0.5 mL/min with 0.2 (v/v) % acetic acid dissolved in acetonitrile/ultrapure water (90/10, v/v), and injected into the mass spectrometry part. The injection needle was washed with ultrapure water (500 millisecond) and acetonitrile (500 millisecond) to minimize carry-over. […] The RapidFire300 system was controlled by RapidFire UI software version 3.6 (Agilent Technologies, Inc.).
The mass spectrometry of the resultant product was performed using API4000™ triple quadrupole mass spectrometer (AB SCIEX) equipped with an electrospray ion sauce (TurboIon Spray™) in a negative selected reaction monitoring (SRM) mode. The conditions of SRM are shown below. The parameters of the instrument were optimized as follows: capillary temperature 600° C., ion spray voltage −4.5 kV, collision gas 8, curtain gas 15 psi, ion source gas 1 60 psi, ion source gas 2 60 psi. The mass spectrometer was controlled by Analyst™ software version 1.5.1 (AB SCIEX). The peak area integration was analyzed using RapidFire integrator software version 3.6 (Agilent Technologies, Inc.).
MAGL inhibitory rate (%) was calculated according to the following calculation formula. (1−(arachidonic acid production amount of test compound addition group−arachidonic acid production amount of enzyme−free group)÷(arachidonic acid production amount of test compound-free group−arachidonic acid production amount of enzyme-free group))×100

| Structure (SMILES) | inhibition at 10 µM [%] | % inhibition (10 μM) [%] |
| --- | --- | --- |
| O=C1COc2cc(F)c(C(=O)N3CCC(O)(COc4ccc(F)cc4Cl)CC3)cc2N1 [Example 73, 6-((4-((2-chloro-4-fluorophenoxy)methyl)-4-hydroxypiperidin-1-yl)carbonyl)-7-fluoro-2H-1,4-benzoxazin-3(4H)-one] | 102 |  |
| O=C1COc2ccc(C(=O)N3CCC(COc4ccnc(Cl)c4Cl)CC3)cc2N1 [Example 46, 6-((4-(((2,3-dichloropyridin-4-yl)oxy)methyl)piperidin-1-yl)carbonyl)-2H-1,4-benzoxazin-3(4H)-one] | 98 |  |
| N#Cc1ccc(OCC2CN(C(=O)c3cc4c(cc3F)OCC(=O)N4)C2)c(Cl)c1 [Example 92, 3-chloro-4-((1-((7-fluoro-3-oxo-3,4-dihydro-2H-1,4-benzoxazin-6-yl)carbonyl)azetidin-3-yl)methoxy)benzonitrile] | 99 |  |
| O=C1COc2ncc(C(=O)N3CCC(COc4c(F)cccc4Cl)CC3)cc2N1 [Example 22, 7-((4-((2-chloro-6-fluorophenoxy)methyl)piperidin-1-yl)carbonyl)-1H-pyrido[2,3-b][1,4]oxazin-2(3H)-one] | 95 |  |
| O=C1COc2cc(F)c(C(=O)N3CC(COc4cc(Cl)ccc4Cl)C3)cc2N1 [Example 125, 6-((3-((2,5-dichlorophenoxy)methyl)azetidin-1-yl)carbonyl)-7-fluoro-2H-1,4-benzoxazin-3(4H)-one] | 98 |  |
| O=C1COc2ncc(C(=O)N3CC(COCc4ccccc4)C3)cc2N1 [Example 14, 7-((3-((benzyloxy)methyl)azetidin-1-yl)carbonyl)-1H-pyrido[2.3-b][1,4]oxazin-2(3H)-one] | 80 |  |
| O=C1COc2ccc(C(=O)N3CCC(F)(COc4ccc(F)cc4Cl)CC3)cc2N1 [Example 27, 6-((4-((2-chloro-4-fluorophenoxy)methyl)-4-fluoropiperidin-1-yl)carbonyl)-2H-1,4-benzoxazin-3(4H)-one] | 101 |  |
| O=C1COc2ccc(C(=O)N3CCC(COc4ccc(C(F)(F)F)cc4)CC3)cc2N1 [Example 58, 6-((4-((4-(trifluoromethyl)phenoxy)methyl)piperidin-1-yl)carbonyl)-2H-1,4-benzoxazin-3(4H)-one] | 100 |  |
| N#Cc1cc(OCC2CN(C(=O)c3cc4c(cc3F)OCC(=O)N4)C2)ccc1Cl [Example 133, 2-chloro-5-((1-((7-fluoro-3-oxo-3,4-dihydro-2H-1,4-benzoxazin-6-yl)carbonyl)azetidin-3-yl)methoxy)benzonitrile] | 98 |  |
| O=C1COc2ccc(C(=O)N3CCC(COc4cccc5ccccc45)CC3)cc2N1 [Example 59, 6-((4-((1-naphthyloxy)methyl)piperidin-1-yl)carbonyl)-2H-1,4-benzoxazin-3(4H)-one] | 102 |  |
| O=C1COc2ccc(C(=O)N3CCC(COc4ccccc4)CC3)cc2N1 [Example 12, 6-((4-(phenoxymethyl)piperidin-1-yl)carbonyl)-2H-1,4-benzoxazin-3(4H)-one] | 99 |  |
| O=C1COc2cnc(C(=O)N3CCC(COc4ccc(C(F)(F)F)cc4Cl)CC3)cc2N1 [Example 144, 7-((4-((2-chloro-4-(trifluoromethyl)phenoxy)methyl)piperidin-1-yl)carbonyl)-1H-pyrido[3,4-b][1,4]oxazin-2(3H)-one] | 98 |  |
| O=C1COc2cc(F)c(C(=O)N3CC(COc4ccc(Cl)c(F)c4)C3)cc2N1 [Example 130, 6-((3-((4-chloro-3-fluorophenoxy)methyl)azetidin-1-yl)carbonyl)-7-fluoro-2H-1,4-benzoxazin-3(4H)-one] | 103 |  |

Results, then the molecule that gave them:

| inhibition at 10 µM [%] | % inhibition (10 μM) [%] | Structure (SMILES) |
| --- | --- | --- |
| 97 |  | O=C1COc2cc(F)c(C(=O)N3CCC(COc4cccc5scnc45)CC3)cc2N1 [Example 186, 6-((4-((1,3-benzothiazol-4-yloxy)methyl)piperidin-1-yl)carbonyl)-7-fluoro-2H-1,4-benzoxazin-3(4H)-one] |
| 100 |  | Cc1nc2ccc(OCC3CN(C(=O)c4cc5c(cc4F)OCC(=O)N5)C3)cc2o1 [Example 153, 7-fluoro-6-((3-(((2-methyl-1,3-benzoxazol-6-yl)oxy)methyl)azetidin-1-yl)carbonyl)-2H-1,4-benzoxazin-3(4H)-one] |
|  | 101 | CC(Oc1ccc(F)cc1Cl)C1CCN(C(=O)c2cc3c(cc2F)OCC(=O)N3)CC1 (stereo not shown) [Example 296, 6-((4-(1-(2-chloro-4-fluorophenoxy)ethyl)piperidin-1-yl)carbonyl)-7-fluoro-2H-1,4-benzoxazin-3(4H)-one] |
| 103 |  | CC(C)c1ccc(OCC2CN(C(=O)c3cc4c(cc3F)OCC(=O)N4)C2)cc1 [Example 159, 7-fluoro-6-((3-((4-isopropylphenoxy)methyl)azetidin-1-yl)carbonyl)-2H-1,4-benzoxazin-3(4H)-one] |
| 101 |  | Cc1nc2ccc(OCC3CN(C(=O)c4cc5c(cc4F)OCC(=O)N5)C3)cc2s1 [Example 152, 7-fluoro-6-((3-(((2-methyl-1,3-benzothiazol-6-yl)oxy)methyl)azetidin-1-yl)carbonyl)-2H-1,4-benzoxazin-3(4H)-one] |
| 99 |  | CC(Oc1ccc(F)cc1F)C1CN(C(=O)c2cc3c(cc2F)OCC(=O)N3)C1 (stereo not shown) [Example 298, 6-((3-(1-(2,4-difluorophenoxy)ethyl)azetidin-1-yl)carbonyl)-7-fluoro-2H-1,4-benzoxazin-3(4H)-one] |
| 101 |  | O=C1COc2cc(F)c(C(=O)N3CC(COc4ccc(Cl)cc4-c4cnc(C(F)(F)F)nc4)C3)cc2N1 [Example 222, 6-((3-((4-chloro-2-(2-(trifluoromethyl)pyrimidin-5-yl)phenoxy)methyl)azetidin-1-yl)carbonyl)-7-fluoro-2H-1,4-benzoxazin-3(4H)-one] |
| 104 |  | Cc1cccc(-c2cc(Cl)ccc2OCC2CN(C(=O)c3cc4c(cc3F)OCC(=O)N4)C2)n1 [Example 197, 6-((3-((4-chloro-2-(6-methylpyridin-2-yl)phenoxy)methyl)azetidin-1-yl)carbonyl)-7-fluoro-2H-1,4-benzoxazin-3(4H)-one] |
| 103 |  | CC(C)Cn1cc(-c2cc(Cl)ccc2OCC2CN(C(=O)c3cc4c(cc3F)OCC(=O)N4)C2)cn1 [Example 224, 6-((3-((4-chloro-2-(1-isobutyl-1H-pyrazol-4-yl)phenoxy)methyl)azetidin-1-yl)carbonyl)-7-fluoro-2H-1,4-benzoxazin-3(4H)-one] |
| 100 |  | CC(Oc1ccc2cn[nH]c2c1)C1CN(C(=O)c2cc3c(cc2F)OCC(=O)N3)C1 (stereo not shown) [Example 299, 7-fluoro-6-((3-(1-(1H-indazol-6-yloxy)ethyl)azetidin-1-yl)carbonyl)-2H-1,4-benzoxazin-3(4H)-one] |
| 101 |  | O=C1COc2cc(F)c(C(=O)N3CC(COc4ccc(Cl)cc4-c4ccc(F)cn4)C3)cc2N1 [Example 195, 6-((3-((4-chloro-2-(5-fluoropyridin-2-yl)phenoxy)methyl)azetidin-1-yl)carbonyl)-7-fluoro-2H-1,4-benzoxazin-3(4H)-one] |
|  | 101 | CC(Oc1ccc(F)c(F)c1)C1CN(C(=O)c2cc3c(cc2F)OCC(=O)N3)C1 (stereo not shown) [Example 312, 6-((3-(1-(3,4-difluorophenoxy)ethyl)azetidin-1-yl)carbonyl)-7-fluoro-2H-1,4-benzoxazin-3(4H)-one] |
| 102 |  | CC(Oc1ccc(F)cc1Cl)C1CCN(C(=O)c2cc3c(cc2F)OCC(=O)N3)CC1 (stereo not shown) [Example 293, 6-((4-(1-(2-chloro-4-fluorophenoxy)ethyl)piperidin-1-yl)carbonyl)-7-fluoro-2H-1,4-benzoxazin-3(4H)-one] |
| 97 |  | O=C1COc2cc(F)c(C(=O)N3CC(COc4ccc(-c5ccccn5)cc4F)C3)cc2N1 [Example 227, 7-fluoro-6-((3-((2-fluoro-4-(pyridin-2-yl)phenoxy)methyl)azetidin-1-yl)carbonyl)-2H-1,4-benzoxazin-3(4H)-one] |
| 102 |  | Cn1nccc1-c1ccc(OCC2CN(C(=O)c3cc4c(cc3F)OCC(=O)N4)C2)c(F)c1 [Example 254, 7-fluoro-6-((3-((2-fluoro-4-(1-methyl-1H-pyrazol-5-yl)phenoxy)methyl)azetidin-1-yl)carbonyl)-2H-1,4-benzoxazin-3(4H)-one] |
